According to patent US20250136570A1 (Tango Therapeutics, Inc., priority 2021, published 2025):

Experiments:
[1] = target: Recombinant HDAC1 (Homo sapiens (Human), UniProt Q13547); test: HDAC1 inhibition, Fluor de Lys fluorescent enzyme assay; assay type: biochemical; settings: 3 hours pre-incubation at room temp; 6 nM enzyme; 16 μM Fluor de Lys substrate; duplicate
Text: (§1) Recombinant HDAC1 (cat #: 50051) and HDAC3/NCor2 (cat #: 50003) enzymes were purchased from BPS Bioscience (San Diego, CA, US). Assay reagents for the detection of HDAC enzyme activity (Fluor de Lys®—Green substrate and Developer kits) were purchased from Enzo Life Science (Farmingdale, NY, US). Plates used to conduct the enzyme reaction were Proxiplate-384 (cat #: 6008280) Plus from PerkinElmer (Waltham, MA, US). TSA, an HDAC inhibitor, was purchased from Enzo Life Science (cat #BML-GR309-9090) The remainder of the reagents used to prepare the assay buffer were purchased from Sigma-Aldrich (St Louis, MO, US). Unless stated otherwise, HDAC1 and 3 assays were conducted in 50 mM Tris buffer, pH 8, 137 mM NaCl, 2.7 mM KCl, 0.01% BSA.
(§2) IC50 determination for HDAC1 and HDAC3—Prior to adding reagents, 50 nL/well of compound were added to Proxiplates using an Echo dispenser instrument (Beckman Coulter, CA, US). After addition of compound, 2.5 μL/well of 2× enzyme solution was added and the enzyme was pre-incubated with compound for 3 hours at room temp. (˜22° C.). After the pre-incubation period, the enzyme reaction was initiated by adding 2.5 μL/well of 2× Fluor de Lys® substrate solution. The assay reaction was stopped after one hour by adding 5 μl/well of a 0.66× Developer solution containing TSA (3.2 μM). The final product of the enzyme reaction was read using a Spectramax plate reader instrument (Molecular Devices, CA, US) using a fluorescent readout (Ex 360 nm/Em 460 nm). The final enzyme concentrations in the assay buffer for HDAC1 and 3 were 6 and 1.2 nM, respectively. The final Fluor de Lys® substrate concentration in the assay buffer was 16 μM for all HDAC enzymes. IC50 values were determined using the following equation: […]
(§3) Where Efree and Eo are the free and total amount of HDAC enzyme in the reaction mixture, n is the hill coefficient, I is the free inhibitor concentration, and IC50 is the measure of the potency equivalent to the inhibitor concentration that leads to a 50% occupancy of the total enzyme. Each data was generated in duplicate.

[2] = target: HDAC3/NCor2 (Homo sapiens (Human), UniProt O15379); test: HDAC3 inhibition, Fluor de Lys fluorescent enzyme assay; assay type: biochemical; settings: 3 hours pre-incubation at room temp; 1.2 nM enzyme; 16 μM Fluor de Lys substrate; duplicate
HDAC3/NCor2, sequence (O15379 whole entry): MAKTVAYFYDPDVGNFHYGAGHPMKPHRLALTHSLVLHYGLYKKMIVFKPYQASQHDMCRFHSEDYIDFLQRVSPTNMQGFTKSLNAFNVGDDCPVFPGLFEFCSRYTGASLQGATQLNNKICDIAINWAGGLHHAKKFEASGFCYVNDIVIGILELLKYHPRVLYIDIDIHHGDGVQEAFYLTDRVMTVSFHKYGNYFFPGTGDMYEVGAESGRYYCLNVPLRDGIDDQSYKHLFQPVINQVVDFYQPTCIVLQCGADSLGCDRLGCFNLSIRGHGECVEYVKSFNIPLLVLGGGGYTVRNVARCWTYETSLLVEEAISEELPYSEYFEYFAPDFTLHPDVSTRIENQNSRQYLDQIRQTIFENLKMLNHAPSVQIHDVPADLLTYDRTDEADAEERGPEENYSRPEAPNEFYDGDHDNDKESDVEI
HDAC3/NCor2, sequence (Q9Y618 395-489 partner): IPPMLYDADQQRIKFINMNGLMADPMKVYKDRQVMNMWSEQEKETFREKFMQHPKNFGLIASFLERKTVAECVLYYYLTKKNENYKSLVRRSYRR
Text: as §1, §2, §3

Recombinant HDAC1, sequence (Q13547 whole entry): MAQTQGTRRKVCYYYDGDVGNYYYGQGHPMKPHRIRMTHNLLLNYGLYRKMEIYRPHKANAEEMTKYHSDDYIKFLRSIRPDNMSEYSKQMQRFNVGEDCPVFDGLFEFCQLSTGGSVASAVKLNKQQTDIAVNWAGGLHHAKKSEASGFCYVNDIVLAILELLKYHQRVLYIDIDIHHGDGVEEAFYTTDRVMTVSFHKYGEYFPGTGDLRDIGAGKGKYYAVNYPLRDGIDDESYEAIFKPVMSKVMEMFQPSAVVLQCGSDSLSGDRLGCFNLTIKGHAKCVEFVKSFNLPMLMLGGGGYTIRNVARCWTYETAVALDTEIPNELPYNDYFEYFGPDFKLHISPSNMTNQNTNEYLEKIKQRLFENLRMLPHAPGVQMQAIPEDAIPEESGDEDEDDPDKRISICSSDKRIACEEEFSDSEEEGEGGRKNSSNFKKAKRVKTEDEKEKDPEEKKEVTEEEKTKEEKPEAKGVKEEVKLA

IC50 [1] [µM] | IC50 [2] [µM] | SMILES
< 0.1 | 0.5 to 2 | N=S(=O)(c1ccc(C(=O)Nc2cc(-c3cccnc3)ccc2N)cc1)C1CC1 (stereo not drawn) [Compound 116, N-[2-amino-5-(3-pyridyl)phenyl]-4-(cyclopropylsulfonimidoyl)benzamide]
< 0.1 | > 2 | CS(=N)(=O)c1cnc2sc(C(=O)Nc3cc(-c4ccc(F)cc4)ccc3N)cc2c1 (stereo not drawn) [Compound 202, N-[2-amino-5-(4-fluorophenyl)phenyl]-5-(methylsulfonimidoyl)thieno[2,3-b]pyridine-2-carboxamide]
< 0.1 | 0.5 to 2 | CCN=S(C)(=O)c1ccc(C(=O)Nc2cc(-c3cccs3)ccc2N)cc1 (stereo not drawn) [Compound 141, N-[2-amino-5-(2-thienyl)phenyl]-4-(N-ethyl-S-methyl-sulfonimidoyl)benzamide]
< 0.1 | 0.5 to 2 | Nc1ccc(-c2ccc(F)cc2)cc1NC(=O)c1ccc([S@@]2(=O)=NCCC2)cc1 (stereo in doubt) [Compound 185, N-[2-amino-5-(4-fluorophenyl)phenyl]-4-[rel-(1R)-1-oxo-4,5-dihydro-3H-isothiazol-1-yl]benzamide]
< 0.1 | 0.5 to 2 | N=S(=O)(c1ccc2sc(C(=O)Nc3cc(-c4ccc(F)cc4)ccc3N)cc2c1)C1CC1 (stereo not drawn) [Compound 224, N-[2-amino-5-(4-fluorophenyl)phenyl]-5-(cyclopropylsulfonimidoyl)benzothiophene-2-carboxamide]
0.5 to 2 | > 2 | CS(=N)(=O)c1ccc(C(=O)Nc2cc(-c3ccc(C(F)(F)F)cc3)ccc2N)cc1 (stereo not drawn) [Compound 142, N-[2-amino-5-[4-(trifluoromethyl)phenyl]phenyl]-4-(methylsulfonimidoyl)benzamide]
< 0.1 | 0.5 to 2 | Cc1ncc(S(=N)(=O)c2ccc(C(=O)Nc3cc(-c4ccc(F)cc4)ccc3N)cc2)cn1 (stereo not drawn) [Compound 235, N-[2-amino-5-(4-fluorophenyl)phenyl]-4-[(2-methylpyrimidin-5-yl)sulfonimidoyl]benzamide]
< 0.1 | 0.5 to 2 | CS(=N)(=O)c1ccc2sc(C(=O)Nc3cc(-c4ccc(F)cc4)ccc3N)cc2c1 (stereo not drawn) [Compound 173, N-[2-amino-5-(4-fluorophenyl)phenyl]-5-(methylsulfonimidoyl)benzothiophene-2-carboxamide]
< 0.1 | > 2 | Cc1ccc(-c2ccc(N)c(NC(=O)c3ccc(S(C)(=N)=O)cc3)c2)s1 (stereo not drawn) [Compound 139, N-[2-amino-5-(5-methyl-2-thienyl)phenyl]-4-(methylsulfonimidoyl)benzamide]
< 0.1 | 0.5 to 2 | N=[S@](=O)(c1ccc(C(=O)Nc2cc(-c3ccc(F)cc3)ccc2N)cc1)c1cncnc1 (single isomer, unassigned) [Compound 183]
< 0.1 | 0.5 to 2 | N=S(=O)(c1ccc(C(=O)Nc2cc(-c3ccc(F)cc3)ccc2N)cc1)c1cncc(F)c1 (stereo not drawn) [Compound 206, N-(4-amino-4′-fluoro-[1,1′-biphenyl]-3-yl)-4-(5-fluoropyridine-3-sulfonimidoyl)benzamide]
< 0.1 | 0.5 to 2 | CS(=N)(=O)c1ccc(C(=O)Nc2cc(-c3ccc(F)cc3)ccc2N)cc1 (stereo not drawn) [Compound 104, N-[2-amino-5-(4-fluorophenyl)phenyl]-4-(methylsulfonimidoyl)benzamide]
< 0.1 | 0.5 to 2 | N=S(=O)(c1ccc(C(=O)Nc2cc(-c3cccs3)ccc2N)cn1)C1CC1 (stereo not drawn) [Compound 122, N-[2-amino-5-(2-thienyl)phenyl]-6-(cyclopropylsulfonimidoyl)pyridine-3-carboxamide]
< 0.1 | > 2 | Nc1ccc(-c2ccc(Cl)cc2)cc1NC(=O)c1ccc(S2(=O)=NCCC2)cc1 (stereo not drawn) [Compound 203, N-[2-amino-5-(4-chlorophenyl)phenyl]-4-(1-oxo-4,5-dihydro-3H-isothiazol-1-yl)benzamide]
< 0.1 | 0.5 to 2 | COc1ncc(S(=N)(=O)c2ccc(C(=O)Nc3cc(-c4ccc(F)cc4)ccc3N)cc2)cn1 (stereo not drawn) [Compound 218, N-[2-amino-5-(4-fluorophenyl)phenyl]-4-[(2-methoxypyrimidin-5-yl)sulfonimidoyl]benzamide]
< 0.1 | 0.1 to 0.5 | N=S(=O)(c1ccc(C(=O)Nc2cc(-c3ccc(F)cc3)ccc2N)cc1)c1ccccc1F (stereo not drawn) [Compound 197, N-[2-amino-5-(4-fluorophenyl)phenyl]-4-[(2-fluorophenyl)sulfonimidoyl]benzamide]
< 0.1 | 0.5 to 2 | C[S@@](=N)(=O)c1ccc(C(=O)Nc2cc(-c3ccc(F)s3)ccc2N)cc1 [Compound 144, (R)—N-[2-amino-5-(5-fluoro-2-thienyl)phenyl]-4-(methylsulfonimidoyl)benzamide]
< 0.1 | 0.1 to 0.5 | Cc1cnc(S(=N)(=O)c2ccc(C(=O)Nc3cc(-c4ccc(F)cc4)ccc3N)cc2)[nH]1 (stereo not drawn) [Compound 228, N-[2-amino-5-(4-fluorophenyl)phenyl]-4-[(5-methyl-1H-imidazol-2-yl)sulfonimidoyl]benzamide]
< 0.1 | 0.5 to 2 | N=[S@@](=O)(c1ccc(C(=O)Nc2cc(-c3ccc(F)cc3)ccc2N)cc1)c1ccccn1 (single isomer, unassigned) [Compound 212]
0.5 to 2 | > 2 | CS(=N)(=O)c1ccc(C(=O)Nc2cc(-c3ncccn3)ccc2N)cc1 (stereo not drawn) [Compound 158, N-(2-amino-5-pyrimidin-2-yl-phenyl)-4-(methylsulfonimidoyl)benzamide]
< 0.1 | 0.5 to 2 | N=S(=O)(c1ccc(C(=O)Nc2cc(-c3ccc(F)cc3F)ccc2N)cc1)C1CC1 (stereo not drawn) [Compound 118, N-[2-amino-5-(2,4-difluorophenyl)phenyl]-4-(cyclopropylsulfonimidoyl)benzamide]
< 0.1 | > 2 | Nc1ccc(-c2ccc(F)cc2)cc1NC(=O)c1ccc([S@@]2(=O)=N[C@@H](c3ccccc3)CC2)cc1 (racemic) [Compound 229, rac-N-(4-amino-4′-fluoro-[1,1′-biphenyl]-3-yl)-4-((1R,3R)-1-oxido-3-phenyl-4,5-dihydro-3H-1λ^6-isothiazol-1-yl)benzamide]
< 0.1 | 0.1 to 0.5 | Cc1ncc(S(=N)(=O)c2ccc(C(=O)Nc3cc(-c4ccc(F)cc4)ccc3N)cc2)[nH]1 (stereo not drawn) [Compound 217, N-[2-amino-5-(4-fluorophenyl)phenyl]-4-[(2-methyl-1H-imidazol-5-yl)sulfonimidoyl]benzamide]
< 0.1 | 0.5 to 2 | CCS(=N)(=O)c1ccc(C(=O)Nc2cc(-c3ccc(F)cc3)ccc2N)cc1 (stereo not drawn) [Compound 194, N-[2-amino-5-(4-fluorophenyl)phenyl]-4-(ethylsulfonimidoyl)benzamide]
< 0.1 | 0.1 to 0.5 | CS(=N)(=O)c1ccc2sc(C(=O)Nc3cc(-c4ccc(F)cc4)ccc3N)cc2n1 (stereo not drawn) [Compound 254, N-[2-amino-5-(4-fluorophenyl)phenyl]-5-(methylsulfonimidoyl)thieno[3,2-b]pyridine-2-carboxamide]
< 0.1 | > 2 | CC(O)c1ccc(-c2ccc(N)c(NC(=O)c3ccc(S(C)(=N)=O)cc3)c2)s1 (stereo not drawn) [Compound 255, N-[2-amino-5-[5-(1-hydroxyethyl)-2-thienyl]phenyl]-4-(methylsulfonimidoyl)benzamide]
< 0.1 | 0.1 to 0.5 | CS(=N)(=O)c1ccc(C(=O)Nc2cc(-c3ccc(F)cc3)ccc2N)nn1 (stereo not drawn) [Compound 159, N-[2-amino-5-(4-fluorophenyl)phenyl]-6-(methylsulfonimidoyl)pyridazine-3-carboxamide]
< 0.1 | 0.5 to 2 | Cc1cccc(S(=N)(=O)c2ccc(C(=O)Nc3cc(-c4ccc(F)cc4)ccc3N)cc2)n1 (stereo not drawn) [Compound 215, N-[2-amino-5-(4-fluorophenyl)phenyl]-4-[(6-methyl-2-pyridyl)sulfonimidoyl]benzamide]
0.1 to 0.5 | > 2 | CS(=N)(=O)c1ccc(C(=O)Nc2cc(-c3ccc(F)c(F)c3)ccc2N)cc1 (stereo not drawn) [Compound 147, N-[2-amino-5-(3,4-difluorophenyl)phenyl]-4-(methylsulfonimidoyl)benzamide]
< 0.1 | > 2 | COCCOCc1cncc(S(=N)(=O)c2ccc(C(=O)Nc3cc(-c4ccc(F)cc4)ccc3N)cc2)c1 (stereo not drawn) [Compound 193, N-[2-amino-5-(4-fluorophenyl)phenyl]-4-[[5-(2-methoxyethoxymethyl)-3-pyridyl]sulfonimidoyl]benzamide]
